Data set [1] is described as follows: Drug solubility in various carriers. Type of data set: physicochemical.
The conditions of data set [2]: cited from earlier work.

These results are taken from patent publication US20050129765A1, “Controlled release of topiramate in liquid dosage forms” (priority 2003, published 2005).

For `CC1(C)O[C@@H]2[C@@H](CO[C@@]3(COS(N)(=O)=O)OC(C)(C)O[C@@H]23)O1` [topiramate, 2,3:4,5-di-O-isopropylidene-β-D-fructopyranose sulfamate], the solubility in carrier entry in data set [1] (20-30% topiramate in 90/10, 80/20 or 70/30 PEG 400/Cremophor EL) is reported as “completely soluble”; in data set [1] (45% topiramate in 100% of PEG400) it was “completely soluble”. Besides, the “solubility (qualitative)” value in data set [2] (alkaline solutions containing sodium hydroxide or sodium phosphate, acetone, dimethylsulfoxide and ethanol) was “soluble”. The solubility in water result in data set [2] (in water) is “about 9.8 mg/ml”.
